Measured values reported in publication PMC5442318, “Hundreds of dual-stage antimalarial molecules discovered by a functional gametocyte screen” (Nature Communications, 2017).
Where two headings read alike, the source gives them in different places.

Key:
[1] = system: P. falciparum asexual blood stages; details: read-out: Pf Asexual blood stages XC50, cited from earlier work
[2] = system: P. falciparum stages IV–V gametocytes; experiment: Gametocytocidal ATP-depletion assay (gametocyte ATP bioluminescence); assay type: cell-based, Plasmodium falciparum
Experimental: In parallel, the set of confirmed hits from the Pf FGAA screen was cross-compared in the gametocyte ATP-depletion assay, at 2 μM single concentration (Supplementary Data 1). This assay monitors ATP levels as surrogate of gametocyte viability.
‘Viability' of mature gametocytes was determined using the gametocyte ATP bioluminiscence assay. Briefly, stages IV–V gametocyte cultures were double-purified by differential sedimentation followed by magnetic isolation. Then, parasites (50 μl per well containing 12,500 gametocytes) were added to compound pre-dispensed 384-well plates (781091, Greiner Bio-One) and incubated at 37 °C for 48 h (3% O2, 5% CO2 and 92% N2). BacTiter-Glo kit (G8231, Promega) was used to determine the ATP levels of ‘live' parasites according to the manufacturer's instructions. After reagent addition (50 μl per well), luminescence of the plates was measured using a microplate reader (HTS counter Victor, Wallac).

HepG2 cells = experiment: HepG2 cytotoxicity assay; assay type: cell-based
Experimental: After incubation, plates and CellTiter-Glo Reagent (G7571, Promega) were equilibrated at room temperature for 30 min before proceeding to develop the luminescent signal. Using a Multidrop combi dispenser, 25 μl per well of the signal developer were added to the plates and after 10 min at room temperature for stabilization, plates were read on the ViewLux system (Perkin Elmer).

[3] = system: P. falciparum stage V female gametocytes; experiment: P. falciparum female gametocyte activation assay (Pf FGAA), 24 h or 48 h preincubation, Pfs25 expression readout; assay type: cell-based, Plasmodium falciparum NF54; details: mean, read-out: Gametocytes mean Pf FGAA IC50
Experimental: P. falciparum NF54 (originally isolated from an imported malaria case in the Netherlands in the 1980s; BEI Resources, cat. no. MRA-1000) asexual-stage culture was performed as described by Trager and Jensen[37]. Cultures synchronized at the ring stage were used to start gametocyte cultures (day 0) at 1% parasitaemia and 4% haematocrit in 200 ml final volume using culture bottles (Nalgene 3110-42, Thermo Scientific). Complete culture medium (RPMI 1640 supplemented with 25 mM HEPES, 50 μg ml^−1 hypoxanthine, 2 g l^−1 NaHCO3 and 10% pooled human male type A+ serum) was totally replaced daily for 14 days without fresh erythrocyte addition. Human serum was obtained from Interstate Blood Bank, A^+ serotype; no aspirin 2 h before drawing and no antimalarials 2 weeks before drawing. To ensure a stable temperature at 37 °C, which is crucial for gametocyte production and maturation, pre-warmed medium and a slide warmer (XH-2001, Premiere) were used. Under these conditions, parasitaemia reaches a peak of asexual stages on days 4–5, and the first gametocytes are differentiated in culture on day 6. Sexual-stage development was monitored microscopically by Giemsa-stained thin blood smears at day 7 (mainly asexual stages and stages I to III gametocytes) and day 14 (stages IV and V gametocytes).
Cultures showing mainly stage V gametocytes were purified by differential sedimentation as previously reported. The gametocyte concentration was adjusted to plate 8,000 gametocytes per well (100 μl per well) in 384-well poly-D-lysine coated plates (781946, Greiner Bio-One) containing the compounds to test. […] Female gametocyte activation was then triggered by temperature drop and addition of xanthurenic acid (D120804, Sigma) as previously described. To detect female gametes, monoclonal anti-Pfs25 antibody[38] 4B7 (BEI Resources (formerly MR4), cat. no. MRA-315) conjugated to the Cy3 fluorochrome (GE Healthcare) was added to ookinete medium (RPMI 1640 supplemented with 25 mM HEPES, 50 μg ml^−1 hypoxanthine, 2 g l^−1 NaHCO3, 100 μM xanthurenic acid and 20% human serum) at a final concentration of 0.5 μg ml^−1. Activated cultures were then kept at 26 °C for 24 h protected from light, and image acquisition was performed in the Opera High-Content Screening System (PerkinElmer). Using × 10 air objective, five images per well were taken using 532 nm excitation. Images were analysed with a Columbus image data storage and analysis system (PerkinElmer) based on a script specifically designed for this assay that considers size, roundness and intensity of fluorescence of the female activated gametocytes.
Compounds were dissolved in 100% DMSO and dispensed in the 384-well plates using an Echo-CRS liquid handler. Compounds were tested in 2–3 independent experiments. […] Based on that, Z′ factor was calculated for each plate and only those ones with values higher than 0.4 were considered acceptable for data analysis.
Assay performance statistics, such as signal to background ratio, Z′ and robust 3 s.d. activity cut-off were calculated using templates in ActivityBase XE (IDBS, Guilford, Surrey, UK). Hit population analysis and visualization were conducted using Spotfire DecisionSite (Spotfire, Inc., Somerville, MA, USA). The pIC50 (−log IC50) values were obtained using the ActivityBase XE nonlinear regression function in the full curve analysis bundle.

[4] = TCAMS data, ref 1 (Gamo et al., 2010)
[5] = TCAMS asexual blood stage data, ref 1 (Gamo, F. J. et al., Nature 465, 305-310, 2010)
[6] = P. falciparum female gametocytes

SMILES | IC50 [1, 4] [µM] | Gametocytes mean ATP inhibition at 2µM (%) [2] [%] | HepG2 cells mean TOX50 (HepG2 cells; mean) [µM] | IC50 [3] [µM] | IC50 [1, 5] [µM] | Gametocytes mean ATP inhibition at 2µM [2] [%] | HepG2 cells mean TOX50 (HepG2 cells; HepG2 cells; mean) [µM] | IC50 [3, 6] [µM] | HepG2 cells mean TOX50 (HepG2 cells; mean; HepG2 cells) [µM] | IC50 ([3]; P. falciparum female gametocyte activation assay) [µM]
C=CCC1OC(=O)c2cc(OC)cc(OC)c21 (centres unmarked) [TCMDC-138677] | 0.34 | 95.50 | 2.29 | 0.36 | – | – | – | – | – | –
Br.C/C=C/C=C/C1=NCCc2cc(OCCC)ccc21 [TCMDC-137442] | 0.91 | 30.75 | 18.29 | 1.3 | – | – | – | – | – | –
FC(F)(F)c1ccc2[nH]c(-c3ccc(-c4ccc(CNCCN5CCNCC5)cc4)s3)nc2c1.O=C(O)C(F)(F)F [TCMDC-132862] | – | – | – | – | 0.91 | -0.18 | 12.88 | 3 | – | –
CC(Cc1ccc(C(=O)Nc2ccc(CC(C)NCCc3cccc(Cl)c3)cc2)cc1)NCCc1ccc(C(F)(F)F)cc1 (centres unmarked) [TCMDC-139790] | 0.57 | 57.11 | 4.13 | 1.01 | – | – | – | – | – | –
Cl.c1ccc2c(Nc3ccc(Cc4ccc(Nc5c6ccccc6nc6ccccc56)cc4)cc3)c3ccccc3nc2c1 [TCMDC-137354] | 0.16 | -29.34 | 3.85 | 1.04 | – | – | – | – | – | –
CC(C)(C)c1ccc(CN2CCC(CNC(=O)c3cc(-c4ccccc4F)cs3)C2)cc1.O=C(O)C(F)(F)F (centres unmarked) [TCMDC-134443] | – | – | – | – | 0.56 | -4.04 | 9.30 | 0.83 | – | –
CCCN(CCC)CCCN(CCCN(CCC)CCC)c1cc(C)nc(Nc2ccc3cc(Br)ccc3c2)n1.Cl [TCMDC-138006] | 0.21 | -22.37 | 3.43 | 0.99 | – | – | – | – | – | –
O=C(NCC1CCN(CCN2CCC(c3cn(CCO)c4ccccc34)CC2)CC1)c1ccc(-c2ccc(C(F)(F)F)cc2)cc1 [TCMDC-138856] | 0.44 | 5.55 | 2.69 | 1.47 | – | – | – | – | – | –
Cc1ccc(Cn2ncc(N3CCCNCC3)c(Cl)c2=O)cc1NC(=O)Nc1ccc(-c2ccccc2)cc1 [TCMDC-141924] | – | – | – | – | 0.63 | -4.47 | – | – | 7.86 | 1.73
CCCCOc1c(CNCCCCCCNCc2ccc3ccccc3c2OCCCC)ccc2ccccc12.CS(=O)(=O)O [TCMDC-137975] | 0.87 | 37.85 | 2.21 | 1.49 | – | – | – | – | – | –
Oc1c(C(Nc2ccccn2)c2ccc(Cl)cc2Cl)ccc2cccnc12 (centres unmarked) [TCMDC-125559] | – | – | – | – | 0.89 | 84.30 | 12.74 | 1.14 | – | –
[O-][s+]1c(Cl)c(-c2ccc(Cl)cc2)c2ccc(Cl)cc21 (centres unmarked) [TCMDC-124011] | – | – | – | – | 0.99 | 87.64 | 11.35 | 0.0366 | – | –
FC(F)(F)c1ccc2[nH]c(-c3ccc(-c4cccc(CNCCN5CCNCC5)c4)cc3)nc2c1.O=C(O)C(F)(F)F [TCMDC-132864] | – | – | – | – | 1.03 | 10.30 | 12.31 | 1.71 | – | –
CCn1c(-c2nonc2N)nc2c(-c3cc4ccccc4s3)ncc(C(=O)N3CCC(N)C3)c21.O=C(O)C(F)(F)F (centres unmarked) [TCMDC-135281] | – | – | – | – | 0.87 | 66.75 | 1.00 | 0.45 | – | –
ON=C(c1nc2ccccc2[nH]1)c1nc2ccccc2[nH]1 [TCMDC-125758] | – | – | – | – | 1.09 | 89.28 | 4.96 | 0.33 | – | –
CC(C)(C)c1ccc(CN2CCC(CNC(=O)c3cc(-c4ccccc4Cl)cs3)C2)cc1.O=C(O)C(F)(F)F (centres unmarked) [TCMDC-134445] | – | – | – | – | 0.86 | -16.96 | 6.17 | 1.01 | – | –
COc1cc2nc(N3CCC(CNC(=O)c4ccc(-c5ccc(C(F)(F)F)cc5)cc4)CC3)nc(N)c2cc1OC [TCMDC-138716] | 0.13 | 21.96 | 4.92 | 0.85 | – | – | – | – | – | –
COc1cc(/C=C(\C2=NC(=O)CS2)c2nc3cccnc3n2C)ccc1O [TCMDC-135917] | 1 | 48.81 | 21.14 | 0.72 | – | – | – | – | – | –
C=CCN(C(=O)c1ccc(Cl)c([N+](=O)[O-])c1)c1nc(-c2ccccc2)cs1 [TCMDC-124436] | – | – | – | – | 0.4 | 100.64 | >100 | 0.13 | – | –
O=C(O)C(F)(F)F.O=S(=O)(NCCN1CCCC1)c1cccc(-c2ccc(CNC3Cc4ccccc4C3)cc2)c1 [TCMDC-132241] | – | – | – | – | 0.66 | 3.92 | 6.46 | 3.1 | – | –
Cc1cccc(Nc2nc(N[C@@H]3CCCNC3)nc3cc[nH]c(=O)c23)c1.O=C(O)C(F)(F)F [TCMDC-134835] | – | – | – | – | 0.68 | -27.53 | 3.25 | 1.85 | – | –
CC(C)C1=CC(=NOS(=O)(=O)c2ccccc2)C=C(C(C)C)C1=O [TCMDC-124172] | – | – | – | – | 0.71 | 65.50 | 21.70 | 0.88 | – | –
COc1ccc2nc(-c3ccccc3)cc(NCCCNc3cc(-c4ccccc4)nc4ccc(OC)cc34)c2c1.Cl [TCMDC-137734] | 0.12 | 2.17 | 70.79 | 5.6 | – | – | – | – | – | –
O=C(O)C(F)(F)F.c1cc(CN2CCC(CCN3CCCCC3)CC2)cc(-c2csc(-c3nc4ccccc4[nH]3)c2)c1 [TCMDC-133919] | – | – | – | – | 0.14 | 3.61 | 6.04 | 2.11 | – | –
CN(C)CCN(C)Cc1cccc(-c2ccc3c(Nc4ccc(F)cc4Cl)ccnc3c2)c1 [TCMDC-138416] | 0.11 | 39.96 | 6.10 | 7.02 | – | – | – | – | – | –
CCN1CCN(c2ccc(Nc3c4ccccc4nc4ccccc34)cc2)CC1 [TCMDC-124255] | – | – | – | – | 0.72 | 12.43 | 4.57 | 1 | – | –
